The target of this assay is T1, RPMI 8866 cells (Homo sapiens, UniProt P13612+P26010).
T1 sequence (P13612 34-1032): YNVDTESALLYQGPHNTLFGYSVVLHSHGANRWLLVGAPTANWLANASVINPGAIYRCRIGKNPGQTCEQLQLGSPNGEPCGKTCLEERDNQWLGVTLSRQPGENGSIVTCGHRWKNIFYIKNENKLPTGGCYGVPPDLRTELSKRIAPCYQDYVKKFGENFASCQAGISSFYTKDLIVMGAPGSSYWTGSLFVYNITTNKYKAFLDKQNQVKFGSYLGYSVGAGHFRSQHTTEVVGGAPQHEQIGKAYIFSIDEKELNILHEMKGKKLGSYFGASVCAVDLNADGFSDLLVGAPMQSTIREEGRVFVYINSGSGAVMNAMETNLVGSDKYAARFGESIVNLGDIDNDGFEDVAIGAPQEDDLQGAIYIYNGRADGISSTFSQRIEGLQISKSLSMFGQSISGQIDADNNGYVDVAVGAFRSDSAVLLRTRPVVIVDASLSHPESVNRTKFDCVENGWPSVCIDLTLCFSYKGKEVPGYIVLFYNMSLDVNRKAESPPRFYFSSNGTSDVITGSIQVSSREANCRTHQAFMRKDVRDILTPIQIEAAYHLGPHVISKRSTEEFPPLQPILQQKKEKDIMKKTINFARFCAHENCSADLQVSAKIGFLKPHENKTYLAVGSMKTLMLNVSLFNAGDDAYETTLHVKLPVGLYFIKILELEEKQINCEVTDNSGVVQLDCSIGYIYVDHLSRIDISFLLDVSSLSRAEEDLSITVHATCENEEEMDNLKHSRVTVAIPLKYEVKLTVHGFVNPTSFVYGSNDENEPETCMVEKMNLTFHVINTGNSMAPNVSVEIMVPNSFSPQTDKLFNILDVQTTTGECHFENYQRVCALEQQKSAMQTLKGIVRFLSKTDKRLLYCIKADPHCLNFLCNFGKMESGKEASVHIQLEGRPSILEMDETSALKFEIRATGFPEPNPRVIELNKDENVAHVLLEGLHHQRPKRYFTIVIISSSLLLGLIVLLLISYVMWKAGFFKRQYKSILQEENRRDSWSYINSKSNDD
T1 sequence (P26010 20-798): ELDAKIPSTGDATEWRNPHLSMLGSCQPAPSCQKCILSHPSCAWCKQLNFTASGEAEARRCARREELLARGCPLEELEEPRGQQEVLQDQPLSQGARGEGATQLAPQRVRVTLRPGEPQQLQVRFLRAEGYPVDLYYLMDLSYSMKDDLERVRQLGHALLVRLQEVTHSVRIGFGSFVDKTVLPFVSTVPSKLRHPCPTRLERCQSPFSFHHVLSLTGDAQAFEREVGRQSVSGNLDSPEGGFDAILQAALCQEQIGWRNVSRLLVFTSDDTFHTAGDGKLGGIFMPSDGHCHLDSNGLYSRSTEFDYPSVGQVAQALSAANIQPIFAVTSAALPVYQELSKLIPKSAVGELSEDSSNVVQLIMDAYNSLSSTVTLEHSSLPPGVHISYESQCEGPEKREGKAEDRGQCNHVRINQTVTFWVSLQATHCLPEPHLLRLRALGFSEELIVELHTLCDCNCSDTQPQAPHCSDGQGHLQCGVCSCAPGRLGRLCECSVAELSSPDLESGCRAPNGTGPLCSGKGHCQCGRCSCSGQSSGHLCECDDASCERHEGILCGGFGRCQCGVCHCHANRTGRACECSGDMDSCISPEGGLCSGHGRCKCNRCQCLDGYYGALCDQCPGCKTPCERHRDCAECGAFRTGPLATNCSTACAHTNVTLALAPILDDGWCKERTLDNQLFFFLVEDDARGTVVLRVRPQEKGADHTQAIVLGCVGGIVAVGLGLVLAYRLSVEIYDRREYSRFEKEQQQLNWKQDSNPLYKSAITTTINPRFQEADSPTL
As to the kind of experiment: α4β7-MAdCAM Cell Adhesion Assay. The assay is classed as cell-based. The note with it: thioether monomer peptides, Table 6; read-out: Cell-Adhesion A4B7. Put shortly: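 RPMI 8866 cells (200,000/well) in DMEM with 1 mM MnCl2 and 0.1% BSA were allowed to adhere 30-45 min at 37° C to plates coated with rh MAdCAM-1/Fc (200 ng/well) in presence of serially diluted peptide. After washing, bound cells quantified by MTT, absorbance 570 nm, cell-free background subtracted.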

Drawing on patent publication US20260217767A1, “NOVEL A4B7 THIOETHER PEPTIDE DIMER ANTAGONISTS” (Protagonist Therapeutics, Inc., priority 2014, published 2026), this text covers IC50 for 12 compounds.

SMILES strings stand for the structures. *1 amine or outer side, *2 acyl side, *3 side chain or, on linkers, in order; H or OH if unused. Where a SMILES comes first, the peptide text is derived from it. Bridges are numbered along the chain shown (N, C = ends). [ ]: non-standard residue; d: D form. Bip = N[C@@H](Cc1ccc(-c2ccccc2)cc1)C(=O)O; NMeR = CN[C@@H](CCCNC(=N)N)C(=O)O; β3hE = N[C@@H](CCC(=O)O)CC(=O)O; X1 = O=C(c1ccccc1C[*:2])[*:1]; Pen = CC(C)(S)[C@H](N)C(=O)O Some results are limits rather than exact numbers.

On to `CC(C)C[C@@H]1NC(=O)[C@H]([C@@H](C)O)NC(=O)[C@H](CC(=O)O)NC(=O)[C@H](CO)NC(=O)[C@H](CCCNC(=N)N)N(C)C(=O)c2ccccc2CSC(C)(C)[C@@H](C(=O)N[C@@H](Cc2c[nH]c3ccccc23)C(=O)N[C@H](CCC(=O)O)C(=O)N[C@@H](CO)C(N)=O)NC1=O` [compound 100] (HELM PEPTIDE1{[meR].S.D.T.L.[Pen].W.[dE].S.[am]}|CHEM1{[O=C(c1ccccc1C[*:2])[*:1]]}$PEPTIDE1,CHEM1,1:R1-1:R1|PEPTIDE1,CHEM1,6:R3-1:R2$$$V2.0), for which the IC50 lay in the range of 25 to 100 nM. As to `CC(C)C[C@@H]1NC(=O)[C@H]([C@@H](C)O)NC(=O)[C@H](CC(=O)O)NC(=O)[C@H](CO)NC(=O)[C@H](CCCNC(=N)N)N(C)C(=O)c2ccccc2CSC(C)(C)[C@@H](C(=O)N[C@@H](Cc2c[nH]c3ccccc23)C(=O)N[C@H](CCC(=O)O)C(=O)N[C@@H](Cc2ccccc2)C(N)=O)NC1=O` [compound 101] (HELM PEPTIDE1{[meR].S.D.T.L.[Pen].W.[dE].F.[am]}|CHEM1{[O=C(c1ccccc1C[*:2])[*:1]]}$PEPTIDE1,CHEM1,1:R1-1:R1|PEPTIDE1,CHEM1,6:R3-1:R2$$$V2.0), the IC50 was 100 to 1000 nM. For `CC(C)C[C@@H]1NC(=O)[C@H]([C@@H](C)O)NC(=O)[C@H](CC(=O)O)NC(=O)[C@H](CO)NC(=O)[C@H](CCCNC(=N)N)N(C)C(=O)c2ccccc2CSC(C)(C)[C@@H](C(=O)N[C@@H](Cc2c[nH]c3ccccc23)C(=O)N[C@H](CCC(=O)O)C(=O)N[C@@H](Cc2c[nH]cn2)C(N)=O)NC1=O` [compound 102] (HELM PEPTIDE1{[meR].S.D.T.L.[Pen].W.[dE].H.[am]}|CHEM1{[O=C(c1ccccc1C[*:2])[*:1]]}$PEPTIDE1,CHEM1,1:R1-1:R1|PEPTIDE1,CHEM1,6:R3-1:R2$$$V2.0), the IC50 lay within 25 to 100 nM. For the compound `CC(C)C[C@@H]1NC(=O)[C@H]([C@@H](C)O)NC(=O)[C@H](CC(=O)O)NC(=O)[C@H](CO)NC(=O)[C@H](CCCNC(=N)N)N(C)C(=O)c2ccccc2CSC(C)(C)[C@@H](C(=O)N[C@@H](Cc2c[nH]c3ccccc23)C(=O)N[C@H](CCC(=O)O)C(=O)N[C@@H](Cc2ccc(O)cc2)C(N)=O)NC1=O` [compound 104] (HELM PEPTIDE1{[meR].S.D.T.L.[Pen].W.[dE].Y.[am]}|CHEM1{[O=C(c1ccccc1C[*:2])[*:1]]}$PEPTIDE1,CHEM1,1:R1-1:R1|PEPTIDE1,CHEM1,6:R3-1:R2$$$V2.0), the IC50 lay within 25 to 100 nM.

As to `CC(C)C[C@@H]1NC(=O)[C@H]([C@@H](C)O)NC(=O)[C@H](CC(=O)O)NC(=O)[C@H](CO)NC(=O)[C@H](CCCNC(=N)N)N(C)C(=O)c2ccccc2CSC(C)(C)[C@@H](C(=O)N[C@@H](Cc2c[nH]c3ccccc23)C(=O)N[C@H](CCC(=O)O)C(=O)N[C@H](CO)C(N)=O)NC1=O` [compound 106] (HELM PEPTIDE1{[meR].S.D.T.L.[Pen].W.[dE].[dS].[am]}|CHEM1{[O=C(c1ccccc1C[*:2])[*:1]]}$PEPTIDE1,CHEM1,1:R1-1:R1|PEPTIDE1,CHEM1,6:R3-1:R2$$$V2.0), the IC50 was in the range of 25 to 100 nM. In the case of `CC(C)C[C@@H]1NC(=O)[C@H]([C@@H](C)O)NC(=O)[C@H](CC(=O)O)NC(=O)[C@H](CO)NC(=O)[C@H](CCCNC(=N)N)N(C)C(=O)c2ccccc2CSC(C)(C)[C@@H](C(=O)N[C@@H](Cc2c[nH]c3ccccc23)C(=O)N[C@H](CCC(=O)O)C(=O)N[C@H](Cc2ccccc2)C(N)=O)NC1=O` [compound 107] (HELM PEPTIDE1{[meR].S.D.T.L.[Pen].W.[dE].[dF].[am]}|CHEM1{[O=C(c1ccccc1C[*:2])[*:1]]}$PEPTIDE1,CHEM1,1:R1-1:R1|PEPTIDE1,CHEM1,6:R3-1:R2$$$V2.0), the IC50 was in the range of 25 to 100 nM. `CC(C)C[C@@H]1NC(=O)[C@H]([C@@H](C)O)NC(=O)[C@H](CC(=O)O)NC(=O)[C@H](CO)NC(=O)[C@H](CCCNC(=N)N)N(C)C(=O)c2ccccc2CSC(C)(C)[C@@H](C(=O)N[C@@H](Cc2c[nH]c3ccccc23)C(=O)N[C@H](CCC(=O)O)C(=O)N[C@H](CCC(=O)O)C(N)=O)NC1=O` [compound 108] (HELM PEPTIDE1{[meR].S.D.T.L.[Pen].W.[dE].[dE].[am]}|CHEM1{[O=C(c1ccccc1C[*:2])[*:1]]}$PEPTIDE1,CHEM1,1:R1-1:R1|PEPTIDE1,CHEM1,6:R3-1:R2$$$V2.0): the IC50 is 25 to 100 nM. `CC(C)C[C@@H]1NC(=O)[C@H]([C@@H](C)O)NC(=O)[C@H](CC(=O)O)NC(=O)[C@H](CO)NC(=O)[C@H](CCCNC(=N)N)N(C)C(=O)c2ccccc2CSC(C)(C)[C@@H](C(=O)N[C@@H](Cc2c[nH]c3ccccc23)C(=O)N[C@H](CCC(=O)O)C(=O)N[C@H](Cc2ccc(O)cc2)C(N)=O)NC1=O` [compound 110] (HELM PEPTIDE1{[meR].S.D.T.L.[Pen].W.[dE].[dY].[am]}|CHEM1{[O=C(c1ccccc1C[*:2])[*:1]]}$PEPTIDE1,CHEM1,1:R1-1:R1|PEPTIDE1,CHEM1,6:R3-1:R2$$$V2.0): the IC50 fell in the range of 25 to 100 nM. On to `CC(C)C[C@@H]1NC(=O)[C@H]([C@@H](C)O)NC(=O)[C@H](CC(=O)O)NC(=O)[C@H](CO)NC(=O)[C@H](CCCNC(=N)N)N(C)C(=O)c2ccccc2CSC(C)(C)[C@@H](C(=O)N[C@@H](Cc2c[nH]c3ccccc23)C(=O)N[C@H](CCC(=O)O)C(=O)N[C@@H](CCC(=O)O)C(N)=O)NC1=O` [compound 113] (HELM PEPTIDE1{[meR].S.D.T.L.[Pen].W.[dE].E.[am]}|CHEM1{[O=C(c1ccccc1C[*:2])[*:1]]}$PEPTIDE1,CHEM1,1:R1-1:R1|PEPTIDE1,CHEM1,6:R3-1:R2$$$V2.0), for which the IC50 was in the range of 25 to 100 nM. In the case of `CC(C)C[C@@H]1NC(=O)[C@H]([C@@H](C)O)NC(=O)[C@H](CC(=O)O)NC(=O)[C@H](CO)NC(=O)[C@H](CCCNC(=N)N)N(C)C(=O)c2ccccc2CSC(C)(C)[C@@H](C(=O)N[C@@H](Cc2ccc3ccccc3c2)C(=O)N[C@H](CCC(=O)O)C(N)=O)NC1=O` [compound 114] (HELM PEPTIDE1{[meR].S.D.T.L.[Pen].[O=C([C@H](Cc1ccc2ccccc2c1)N[*:1])[*:2]].[dE].[am]}|CHEM1{[O=C(c1ccccc1C[*:2])[*:1]]}$PEPTIDE1,CHEM1,1:R1-1:R1|PEPTIDE1,CHEM1,6:R3-1:R2$$$V2.0), the IC50 lay in the range of 25 to 100 nM. Take `CC(C)C[C@@H]1NC(=O)[C@H]([C@@H](C)O)NC(=O)[C@H](CC(=O)O)NC(=O)[C@H](CO)NC(=O)[C@H](CCCNC(=N)N)N(C)C(=O)c2ccccc2CSC(C)(C)[C@@H](C(=O)N[C@@H](Cc2ccc3ccccc3c2)C(N)=O)NC1=O` [compound 116] (HELM PEPTIDE1{[meR].S.D.T.L.[Pen].[O=C([C@H](Cc1ccc2ccccc2c1)N[*:1])[*:2]].[am]}|CHEM1{[O=C(c1ccccc1C[*:2])[*:1]]}$PEPTIDE1,CHEM1,1:R1-1:R1|PEPTIDE1,CHEM1,6:R3-1:R2$$$V2.0): the IC50 is 25 to 100 nM. As for `CC(C)C[C@@H]1NC(=O)[C@H]([C@@H](C)O)NC(=O)[C@H](CC(=O)O)NC(=O)[C@H](CO)NC(=O)[C@H](CCCNC(=N)N)N(C)C(=O)c2ccccc2CSC(C)(C)[C@@H](C(=O)N[C@@H](Cc2ccc(-c3ccccc3)cc2)C(=O)N[C@@H](CCC(=O)O)CC(N)=O)NC1=O` [compound 133] ([NMeR]SDTL[Pen][Bip][β3hE]-NH2; linker N-6 via X1), the IC50 was less than 25 nM.
